{"source": "patent US11014966B2", "about": "“Compounds and therapeutics uses thereof” (priority 2016, dated 2021)", "key": {"E. coli K12 [1]": {"system": "E. coli K12", "type": "cell-based", "settings": "20 μM compound, anti-alpha galactosyl IgG purified from human IVIG, 42 μg/mL", "method": "Antibody Recruitment Assay by Flow Cytometry Using Anti Alpha-Galactosyl IgG Antibody\nA secondary FITC labelled anti-human IgG antibody was used to detect binding of alpha-galactosyl to the compound.\n(§1) The assays were carried out in polystyrene 96-well U bottom plates (Costar). The 96-well plates were pre-blocked with casein blocking buffer (Thermo Fisher 37528) and then washed three times with (HBSS+/+) (Life Technologies 14025-050) prior to assay. E. coli K12 (Public Health England, NCTC 10538) were grown in LB broth (Fisher BP1426-500) to late exponential phase. Subsequently, the bacteria were centrifuged at 10 000 rpm for 5 minutes and resuspended HBSS+/+ at a bacterial density of 2*10^9 CFU/mL. […] After a final wash of 3×200 μL HBSS+/+ the bacteria were resuspended in 200 μL HBSS+/+ and evaluated on a FC500 (Beckman Coulter). Bacteria were live gated in the FL-4 channel and median fluorescent shift was recorded in the FL-1 channel. Data from all samples were analysed in the Kaluza software package (Beckman Coulter). […]\n(§2) The fold shift over background was calculated by dividing the Median Fluorescent Intensity obtained in the presence 20 μM Examples by the Median Fluorescence Intensity obtained in the absence of Examples. The shift in fluorescence intensity (FITC) occurs due to the binding event at each end of the molecule."}, "E. coli K12 [2]": {"system": "E. coli K12", "type": "cell-based", "settings": "20 μM compound, human IgM M86 antibody 25 μg/mL, FC500, Method 1", "method": "Antibody Recruitment Assay by Flow Cytometry Using Anti-Alpha-Galactosyl IgM Antibody\nA secondary FITC labelled anti-human IgM antibody was used to detect binding of anti-alpha-galactosyl to the compound.\nas §1, with “and resuspended in HBSS+/+ at” for “and resuspended HBSS+/+ at”\nas §2"}}}
{"smiles": "CCCCCCCCC(=O)N[C@@H](CCNC(=O)c1cc(OCC(=O)NCCCO[C@@H]2OC(CO)[C@@H](O[C@@H]3OC(CO)[C@H](O)C(O[C@H]4OC(CO)[C@H](O)C(O)C4O)C3O)C(O)C2NC(C)=O)cc(-c2cc(OCC(=O)NCCCO[C@@H]3OC(CO)[C@@H](O[C@@H]4OC(CO)[C@H](O)C(O[C@H]5OC(CO)[C@H](O)C(O)C5O)C4O)C(O)C3NC(C)=O)cc(OCC(=O)NCCCO[C@@H]3OC(CO)[C@@H](O[C@@H]4OC(CO)[C@H](O)C(O[C@H]5OC(CO)[C@H](O)C(O)C5O)C4O)C(O)C3NC(C)=O)c2)c1)C(=O)N[C@H](C(=O)N[C@@H](CCN)C(=O)N[C@H]1CCNC(=O)[C@H]([C@@H](C)O)NC(=O)[C@H](CCN)NC(=O)[C@H](CCN)NC(=O)[C@H](CC(C)C)NC(=O)[C@@H](Cc2ccccc2)NC(=O)[C@H](CCN)NC1=O)[C@@H](C)O", "note": "(some centres unmarked) [Example 10]", "values": [{"measurement": "Anti-alphagalactosyl IgG recruitment at 20 μM (Median Fold shift over vehicle)", "setting": "E. coli K12 [1]", "value": 1, "unit": "fold"}, {"measurement": "Anti-alpha galactosyl IgM recruitment at 20 μM (Median Fold shift over vehicle)", "setting": "E. coli K12 [2]", "value": 2, "unit": "fold"}]}
